These results are taken from publication PMC9910343 (ACS chemical neuroscience, 2022).

SMILES strings stand for the structures. “And” between values parts separate entries of the source, which are not always exact repeats. Identical values can stand only once.

The conditions of series [1]: rats; based on the unbound fraction; cited from earlier work.
The test system of series [2] is neurons expressing PSAM-GlyRs. Particulars: systemic administration; rhesus monkeys; cited from earlier work.
Series [3] in a line: Plasma and CSF pharmacokinetics after s.c. or i.v. administration. As to conditions: for Cmax of metabolite hydroxyvarenicline / AUC of metabolite hydroxyvarenicline: mean. In kind it is in vivo, rhesus monkeys.
The mark [4] stands for this setting: after uPSEM817 0.064 mg/kg i.v., CSF.
[5] abbreviates: after uPSEM817 0.064 mg/kg i.v., plasma.
Setting [6] is: after uPSEM817 0.064 mg/kg s.c., plasma.

As to `c1cnc2cc3c(cc2n1)[C@@H]1CNC[C@H]3C1` [varenicline], in series [1], the “CSF:plasma ratio” value is reported as 1.25. Moreover, in series [2], the “neuronal activity in neurons expressing PSAM-GlyRs” value is recorded as “reduces neuronal activity”. In series [3] (after uPSEM817 0.064 mg/kg s.c. or i.v.), the “detection of varenicline as metabolite in plasma or CSF” value is reported as “not detected”.
Take `O=c1cnc2cc3c(cc2[nH]1)C1CNCC3C1` (stereo not drawn) [hydroxyvarenicline]: in series [3] (setting [4]), the “Tmax of metabolite hydroxyvarenicline” value is 1.5 h and the “Cmax of metabolite hydroxyvarenicline” value is 0.05 ng/mL. In addition, in series [3] (setting [5]), the “Tmax of metabolite hydroxyvarenicline” value was 3 h; the “AUC of metabolite hydroxyvarenicline” value was found to be 1.161 ng·h/mL; the “Cmax of metabolite hydroxyvarenicline” value was 0.87 ng/mL and 0.874 ng/mL. In series [3] (setting [6]), the “Tmax of metabolite hydroxyvarenicline” value worked out at 1 h; the “AUC of metabolite hydroxyvarenicline” value was 0.556 ng·h/mL; the “Cmax of metabolite hydroxyvarenicline” value was 0.55 ng/mL and 0.553 ng/mL. The “detection of hydroxyvarenicline as metabolite in CSF” value in series [3] (after uPSEM817 0.064 mg/kg, CSF) is on record as “only detected in a single CSF sample for one animal”.
